Entries after “also recorded” stand apart in the source; their conditions may differ.
Legend:
[1] = biological target: T1, PDK2 (Homo sapiens, UniProt Q15119); experiment: Isothermal titration calorimetry; details: ITC, binding to PDK2
[2] = biological target: T1, PDK2
[3] = tested on: diet-induced obese (DIO) mice; experiment: Glucose tolerance test in DIO mice; assay type: in vivo, C57BL/6J male mice (DIO); details: 40–45 mg/kg/day, two weeks, p <0.05 at 20, 30, 60 and 120 min
[4] = tested on: diet-induced obese (DIO) mice; experiment: Oil Red O stain of liver slices; assay type: in vivo, C57BL/6J male mice (DIO); details: 40–45 mg/kg/day by mini pumps, two weeks
[5] = tested on: phosphorylated E1α subunit (pE1); experiment: Western blot of phosphorylated E1α in liver homogenates of treated DIO mice; assay type: in vivo, C57BL/6J male mice (DIO); details: 40–45 mg/kg/day by osmotic mini-pumps, two weeks
[6] = 17 at 30 mg/kg vs 2 at 70 mg/kg IP
[7] = tested on: PDC activity; experiment: PDC activity in tissues of treated diet-induced obese mice; assay type: in vivo, C57BL/6J male mice (DIO); details: DIO mice, 40–45 mg/kg/day by osmotic mini-pumps, two weeks

Structure (SMILES): O=S(=O)(c1ccc(O)cc1O)N1Cc2ccc(O)cc2C1 [Compound 1, 4-((5-hydroxyisoindolin-2-yl)sulfonyl)benzene-1,3-diol]
- –TΔS [1]: 5.54 kcal/mol

Structure (SMILES): O=S(=O)(c1ccc(O)cc1O)N1Cc2cc(O)cc(O)c2C1 [Compound 2, 2-((2,4-dihydroxyphenyl)sulfonyl)isoindoline-4,6-diol]
- –TΔS [1]: 6.57 kcal/mol

Structure (SMILES): Nc1ccc2c(c1)CN(S(=O)(=O)c1ccc(O)cc1O)C2 [Compound 3]
- fold higher IC50 than 1 ([2]; PDK2, relative to 1): 2 fold

Structure (SMILES): O=S(=O)(c1ccc(O)cc1O)N1Cc2ccc(NC3CCNCC3)cc2C1 [Compound 5, 4-((5-(piperidin-4-ylamino)isoindolin-2-yl)sulfonyl)benzene-1,3-diol]
- –TΔS [1]: 4.64 kcal/mol

Structure (SMILES): NC(=O)C[C@H](N)C(=O)N1CCC(Nc2ccc3c(c2)CN(S(=O)(=O)c2ccc(O)cc2O)C3)CC1 [Compound 17, (S)-3-amino-4-(4-((2-((2,4-dihydroxyphenyl)sulfonyl)isoindolin-5-yl)amino)piperidin-1-yl)-4-oxobutanamide]
- gain in enthalpy change (ΔH) compared to 5 [1]: 3.4 kcal/mol
- loss in entropy compared to 5 [1]: 2.7 kcal/mol
- glucose tolerance over vehicle-treated mice [3]: increases glucose tolerance
- hepatic fat / steatosis (Oil Red O) [4]: drastically reduced hepatic steatosis; also recorded: microvesicular
- fold lower IC50 than 2 ([2]; PDK2, relative to 2): ~ 8 fold
- fold better IC50 than 5 ([2]; PDK2, relative to 5): 3.4 fold
- phosphorylation of the E1α subunit (pE1) in the liver homogenate [5]: decreased phosphorylation
- fold higher AUClast in liver than 2 [6]: > 10 fold
- fold lower AUClast in muscle than 2 [6]: > 10 fold
- fold slower unit-time clearance (CL/F) in liver than 2 [6]: > 30 fold
- PDC activation in heart and muscle [7]: no PDC activation
- increase of PDC activity in liver compared to the vehicle control [7]: about 6 fold

Source: paper PMC5996997 (Journal of medicinal chemistry, 2017)
